# Values of other authors, collected in article PMC10307885, “A Phase 1/2 trial of SRA737 (a Chk1 inhibitor) administered orally in patients with advanced cancer” (British Journal of Cancer, 2023).
# Experiments:
# patients [1] = details: cited from earlier work
# patients [2] = details: cited from earlier work; remark: listed apart in the source
# [3] = in combination with standard dose gemcitabine
smiles,measurement,setting,value
NC(=O)Nc1cc(-c2cccc(F)c2)sc1C(=O)N[C@H]1CCCNC1 [AZD7762],toxicity that halted development,patients [1]; intravenously administered,cardiac toxicity including a drop in ejection fraction
COc1cccc(OCCCN)c1-c1cc(Nc2cnc(C#N)cn2)n[nH]1 [prexasertib],efficacy in squamous anal and head and neck cancers,"patients [2]; intravenous, Phase 1 study",partial responses
same,response rate,patients [2]; patients with high-grade serous ovarian cancers,33%
same,rate of diarrhoea,"patients [1]; intravenous, Phase 2 study",20%
same,rate of nausea,"patients [1]; intravenous, Phase 2 study",36%
same,rate of vomiting,"patients [1]; intravenous, Phase 2 study",27%
N[C@@H]1CCCN(c2c(Br)cnc3[nH]cc(NC(=O)C4CC4)c23)C1 [GDC-0575],partial or complete responses,patients [2]; used as a single agent,did not report partial or complete responses
same,Treatment-related neutropenia of NCI CTCAE Grade 3 or higher,patients [1]; [3],60 % of patients
same,treatment-related GI adverse events of all grades: diarrhoea,patients [1]; [3],18%
same,treatment-related GI adverse events of all grades: nausea,patients [1]; [3],43%
same,treatment-related GI adverse events of all grades: vomiting,patients [1]; [3],27%
